Experimental data as given in PubChem BioAssay AID651829 (Broad Institute, 2012).
“And” between values parts separate entries of the source, which are not always exact repeats. Equal values may be shown once. The source made the active and inactive calls.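 Rule for the calls: active = max delta Tm melting temperature shift above 1 degree C at some tested dose; inactive = the rest.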

Target: Kelch-like ECH-associated protein 1 (Homo sapiens) (UniProt Q14145)
Assay: Keap1 Kelch domain binders by melting shift, dose response, orthogonal assay for Keap1-Nrf2 interaction inhibitor project, biophysical, thermal shift, RT-PCR instrument, dry powder (AID 651829)
Details: Recombinant Keap1 Kelch domain, Sypro Orange, at 0.08 µM, top dose 10 µM, hits give high values

Sequence of Kelch-like ECH-associated protein 1 (Homo sapiens) (Q14145 whole entry, looked up, the tested form may be a part): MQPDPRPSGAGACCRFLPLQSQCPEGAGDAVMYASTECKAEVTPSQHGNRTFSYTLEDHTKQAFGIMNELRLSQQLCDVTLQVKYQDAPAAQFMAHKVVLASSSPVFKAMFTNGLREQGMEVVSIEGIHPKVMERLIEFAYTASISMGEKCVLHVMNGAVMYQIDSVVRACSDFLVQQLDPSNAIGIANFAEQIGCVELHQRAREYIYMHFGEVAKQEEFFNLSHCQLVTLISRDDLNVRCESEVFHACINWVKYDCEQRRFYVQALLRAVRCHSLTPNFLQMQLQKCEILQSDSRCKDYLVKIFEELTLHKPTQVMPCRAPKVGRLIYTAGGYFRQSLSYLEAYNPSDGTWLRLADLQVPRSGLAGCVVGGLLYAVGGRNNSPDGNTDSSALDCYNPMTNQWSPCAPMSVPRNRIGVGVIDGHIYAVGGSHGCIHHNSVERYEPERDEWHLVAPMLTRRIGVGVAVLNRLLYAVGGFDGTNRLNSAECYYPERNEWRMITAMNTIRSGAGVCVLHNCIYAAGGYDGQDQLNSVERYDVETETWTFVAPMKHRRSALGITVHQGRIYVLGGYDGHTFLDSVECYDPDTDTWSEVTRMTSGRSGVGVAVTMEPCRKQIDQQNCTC

SMILES	max delta Tm
O=C1c2ccccc2C(=O)N1CC1c2ccccc2CCN1C(=O)Cc1ccccc1 (stereo unspecified)	0.259 °C (inactive)

Same assay, conditions: Recombinant Keap1 Kelch domain, Sypro Orange, at 0.16 µM, top dose 38 µM, hits give high values

SMILES	max delta Tm
O=C(O)[C@H]1CCCC[C@H]1C(=O)N1CCC2=C(CCCC2)C1CN1C(=O)c2ccccc2C1=O (stereo partly specified)	0.172 °C (inactive)
O=C(O)c1ccccc1C(=O)NC[C@@H]1c2ccccc2CCN1C(=O)[C@@H]1CCCC[C@@H]1C(=O)O	-0.037 °C (inactive)
O=C(O)[C@H]1CCCC[C@H]1C(=O)N1CCc2ccccc2[C@H]1CNc1nc(Cl)nc2ccccc12	0.129 °C (inactive)
O=C(O)C1CCCCC1C(=O)N1CCc2ccccc2[C@H]1C(=O)NCCc1ccccc1 (stereo partly specified)	0.168 °C (inactive)
O=C(O)[C@H]1CCCC[C@H]1C(=O)NC(CN1C(=O)c2ccccc2C1=O)c1ccccc1 (stereo partly specified)	0.154 °C (inactive)
O=C(NC[C@@H]1c2ccccc2CCN1C(=O)[C@@H]1CCCC[C@@H]1C(=O)O)c1ccccc1	0.132 °C (inactive)
O=C(NCCCN1CCOCC1)c1ccccc1C(=O)NC[C@@H]1c2ccccc2CCN1C(=O)C1CCCCC1C(=O)O (stereo partly specified)	0.217 °C (inactive)
O=C(O)[C@H]1CCCC[C@H]1C(=O)N1CCc2ccccc2C1 (racemic)	-0.041 °C (inactive)
Cc1cc(C)c(S(=O)(=O)Nc2nc(N(C)C)nc3ccccc23)c(C)c1	0.107 °C (inactive)
O=C1c2ccccc2C(=O)N1C[C@@H]1c2ccccc2CCN1C(=O)OCc1ccccc1	-0.028 °C (inactive)
COC(=O)C1CCCCC1C(=O)N1CCc2ccccc2C1CN1C(=O)c2ccccc2C1=O (stereo unspecified)	0.175 °C (inactive)

Same assay, conditions: Recombinant Keap1 Kelch domain, Sypro Orange, at 0.3 µM, top dose 38 µM, hits give high values

SMILES	max delta Tm
O=S(=O)(Nc1nc(NCC2CCCCC2)nc2ccccc12)c1ccccc1	0.21 °C (inactive)
COc1ccccc1CCNC(=O)[C@@H]1c2ccccc2CCN1C(=O)C1CCCCC1C(=O)O (stereo partly specified)	0.192 °C (inactive)
Cc1ccc(S(=O)(=O)NNc2nc(C(C(=O)OC(C)C)C(=O)C(F)(F)F)nc3ccccc23)cc1 (stereo unspecified)	0.2 °C (inactive)
Cc1ccc(S(=O)(=O)NNc2nc(NCC(N)=O)nc3ccccc23)cc1	0.22 °C (inactive)
O=C(O)C1CCCCC1C(=O)NCC1c2ccccc2CCN1C(=O)Cc1ccccc1 (stereo unspecified)	0.052 °C (inactive)
COC(=O)CNc1nc(NS(=O)(=O)c2c(C)cc(C)cc2C)c2ccccc2n1	0.26 °C (inactive)
CCOC(=O)C(C(=O)OCC)c1cc(CNS(=O)(=O)c2ccc(C)cc2C)c2ccccc2n1	0.118 °C (inactive)
Cc1ccc(S(=O)(=O)NC(=O)[C@@H]2c3ccccc3CCN2C(=O)[C@@H]2CCCC[C@@H]2C(=O)O)cc1	0.155 °C (inactive)

Same assay, conditions: Recombinant Keap1 Kelch domain, Sypro Orange, at 0.6 µM, top dose 38 µM, hits give high values

SMILES	max delta Tm
CC(C)CNc1nc(NS(=O)(=O)c2ccccc2)c2ccccc2n1	0.095 °C (inactive)
O=C(NC[C@@H]1c2ccccc2CCN1C(=O)[C@@H]1CCCC[C@@H]1C(=O)O)OCC1c2ccccc2-c2ccccc21	0.138 °C (inactive)
COC(=O)[C@@H]1CCCC[C@@H]1C(=O)N1CCc2ccccc2[C@@H]1CN1C(=O)c2ccccc2C1=O	-0.035 °C (inactive)
CCOC(=O)Cc1nc(NS(=O)(=O)c2c(C)cc(C)cc2C)c2ccccc2n1	0.029 °C (inactive)
O=C(O)[C@H]1CCCC[C@H]1C(=O)N1CCc2ccccc2C1CCN1C(=O)c2ccccc2C1=O (stereo partly specified)	0.157 °C (inactive) and 0.069 °C (inactive)
C=CC(=O)NC[C@@H]1c2ccccc2CCN1C(=O)[C@@H]1CCCC[C@@H]1C(=O)O	0.229 °C (inactive)

Same assay, conditions: Recombinant Keap1 Kelch domain, Sypro Orange, at 1.2 µM, top dose 38 µM, hits give high values

SMILES	max delta Tm
COC(=O)[C@H]1CCCC[C@H]1C(=O)N1CCc2ccccc2[C@H]1CN1C(=O)c2ccccc2C1=O	-0.022 °C (inactive)
O=C(O)C1CCCCC1C(=O)N1CCc2ccccc2C1c1ccccc1 (stereo unspecified)	-0.003 °C (inactive)
Cc1ccc(S(=O)(=O)NNc2nc(N3CC(O)CC3C(=O)O)nc3ccccc23)cc1 (stereo unspecified)	0.172 °C (inactive)
CCOC(=O)C(C(=O)OCC)c1cc(CN2C(=O)c3ccccc3C2=O)c2ccccc2n1	0.127 °C (inactive)
Cc1cc(C)c(S(=O)(=O)Nc2ncnc3ccccc23)c(C)c1	0.086 °C (inactive)
O=C1c2ccccc2C(=O)N1C[C@H]1NCCc2ccccc21	0.003 °C (inactive)
COC(=O)[C@@H]1CCCC[C@@H]1C(=O)N1CCc2ccccc2[C@H]1CN1C(=O)c2ccccc2C1=O	-0.023 °C (inactive)

Same assay, conditions: Recombinant Keap1 Kelch domain, Sypro Orange, at 2.6 µM, top dose 38 µM, hits give high values

SMILES	max delta Tm
O=C(Oc1cc(CN2C(=O)c3ccccc3C2=O)c2ccccc2[n+]1[O-])c1cccc(Cl)c1	0.062 °C (inactive)
O=C(O)C1CCCCC1C(=O)N1CCCCC1CN1C(=O)c2ccccc2C1=O (stereo unspecified)	-0.027 °C (inactive)
CCOC(=O)C(C(=O)OCC)c1nc(NS(=O)(=O)c2c(C)cc(C)cc2C)c2ccccc2n1	0.045 °C (inactive)
Cc1cc(C)c(S(=O)(=O)Nc2nc(C(C(=O)OC(C)C)C(=O)C(F)(F)F)nc3ccccc23)c(C)c1 (stereo unspecified)	0.113 °C (inactive)
O=C(O)C1CCCCC1C(=O)N1CCc2ccccc2[C@H]1C(=O)NC12CC3CC(CC(C3)C1)C2 (stereo partly specified)	-0.05 °C (inactive)
O=C(O)c1ccccc1C(=O)N1CCc2ccccc2C1CN1C(=O)c2ccccc2C1=O (stereo unspecified)	0.017 °C (inactive)
COc1ccc(CCN=C2C=C(NS(=O)(=O)c3c(C)cc(C)cc3C)c3ccccc3C2=O)cc1	0.288 °C (inactive)

Same assay, conditions: Recombinant Keap1 Kelch domain, Sypro Orange, at 5 µM, top dose 38 µM, hits give high values

SMILES	max delta Tm
O=C1c2ccccc2C(=O)N1CC1=NCCc2ccccc21	-0.008 °C (inactive)
CC(=O)Nc1cc(NS(=O)(=O)c2c(C)cc(C)cc2C)c2ccccc2c1O	0.953 °C (inactive)

Same assay, conditions: Recombinant Keap1 Kelch domain, Sypro Orange, at 10 µM, top dose 38 µM, hits give high values

SMILES	max delta Tm
Cc1cc(C)c(S(=O)(=O)Nc2cc(C(C(=O)OCc3ccccc3)C(=O)OCc3ccccc3)c(O)c3ccccc23)c(C)c1	0.088 °C (inactive)
O=C(O)CC(=O)N1CCc2ccccc2C1CN1C(=O)c2ccccc2C1=O (stereo unspecified)	-0.045 °C (inactive)
C[C@H](NC(=O)C1CCCC[C@H]1C(=O)O)c1ccccc1 (mixture of isomers)	-0.003 °C (inactive)
O=C(O)CCCC(=O)N1CCc2ccccc2C1CN1C(=O)c2ccccc2C1=O (stereo unspecified)	0.13 °C (inactive)

Same assay, conditions: Recombinant Keap1 Kelch domain, Sypro Orange, at 19.5 µM, top dose 19.5 µM, hits give high values

SMILES	max delta Tm
Cc1cc(C)c(S(=O)(=O)Nc2cc(C(C(=O)OC(C)C)C(=O)C(F)(F)F)c(O)c3ccccc23)c(C)c1 (stereo unspecified)	11.4 degrees C

Same assay, conditions: Recombinant Keap1 Kelch domain, Sypro Orange, at 19.5 µM, top dose 38 µM, hits give high values

SMILES	max delta Tm
COc1ccccc1CCNC(=O)[C@@H]1c2ccccc2CCN1C(=O)C1CCCCC1C(=O)O (stereo partly specified)	0.102 °C (inactive)
Cc1ccc(S(=O)(=O)NC2=CC(=N[C@@H](C)C(=O)OC(C)(C)C)C(=O)c3ccccc32)c(C)c1	0.3 °C (inactive)
Cc1ccc(S(=O)(=O)NC[C@@H]2c3ccccc3CCN2C(=O)[C@@H]2CCCC[C@@H]2C(=O)O)c(C)c1	0.174 °C (inactive)

Same assay, conditions: Recombinant Keap1 Kelch domain, Sypro Orange, at 38 µM, top dose 38 µM, hits give high values

SMILES	max delta Tm
O=C(O)[C@H]1CCCC[C@H]1C(=O)N1CCC2=C(CCCC2)C1CN1C(=O)c2ccccc2C1=O (stereo partly specified)	2.69 degrees C
O=C(O)[C@H]1CCCC[C@H]1C(=O)N1CCc2ccccc2[C@H]1CNS(=O)(=O)c1ccc([N+](=O)[O-])cc1	0.907 °C (inactive)
NC(=O)c1ccccc1C(=O)NC[C@@H]1c2ccccc2CCN1C(=O)[C@@H]1CCCC[C@@H]1C(=O)O	0.771 °C (inactive)
Cc1ccccc1S(=O)(=O)Nc1cc(C(C(=O)OC(C)C)C(=O)C(F)(F)F)c(O)c2ccccc12 (stereo unspecified)	7.77 degrees C
O=C(O)C1CCCCC1C(=O)N1CCc2ccccc2C1CN1Cc2ccccc2C1=O (stereo unspecified)	5.56 degrees C
O=C(O)C1CCCCC1C(=O)N1CCc2ccccc2C1CN1C(=O)c2ccccc2S1(=O)=O (stereo unspecified)	3.85 degrees C
O=C(NC[C@@H]1c2ccccc2CCN1C(=O)[C@@H]1CCCC[C@@H]1C(=O)O)c1ccccc1CO	1.92 degrees C
NC(=O)[C@H]1CCCC[C@H]1C(=O)N1CCc2ccccc2[C@H]1CN1C(=O)c2ccccc2C1=O	1.34 degrees C
O=C(Cc1ccccc1)NC[C@@H]1c2ccccc2CCN1C(=O)[C@@H]1CCCC[C@@H]1C(=O)O	1.66 degrees C
O=C1c2ccccc2C(=O)N1C[C@@H]1c2ccccc2CCN1C(=O)C1CCCCC1	0.208 °C (inactive)
Cc1ccc(S(=O)(=O)Nc2cc(C(C(=O)OC(C)C)C(=O)C(F)(F)F)c(O)c3ccccc23)c(C)c1 (stereo unspecified)	9.26 degrees C
Cc1ccc(S(=O)(=O)Nc2cc(C(C(=O)OC(C)C)C(=O)C(F)(F)F)c(O)c3ccccc23)cc1 (stereo unspecified)	6.81 degrees C
O=C(NCCc1ccccc1)c1ccccc1C(=O)NC[C@@H]1c2ccccc2CCN1C(=O)C1CCCCC1C(=O)O (stereo partly specified)	2.14 degrees C
CC(C)OC(=O)C(C(=O)C(F)(F)F)c1cc(NS(=O)(=O)c2ccccc2)c2ccccc2c1O (stereo unspecified)	4.43 degrees C
O=C(O)Cc1ccccc1C(=O)N1CCc2ccccc2[C@H]1CN1C(=O)c2ccccc2C1=O	4.85 degrees C
O=C(O)C1CCCCC1C(=O)N1CCc2ccccc2C1CN1C(=O)Cc2ccccc2C1=O (stereo unspecified)	1.59 degrees C
COC(=O)C(C(=O)OC)c1cc(NS(=O)(=O)c2c(C)cc(C)cc2C)c2ccccc2c1O	3.82 degrees C
O=C(O)/C=C\C(=O)N1CCc2ccccc2C1CN1C(=O)c2ccccc2C1=O (stereo unspecified)	1.14 degrees C
C[C@@H](NC(=O)C1CCCC[C@H]1C(=O)O)c1ccccc1 (mixture of isomers)	0.005 °C (inactive)
O=C(NC[C@@H]1c2ccccc2CCN1C(=O)[C@@H]1CCCC[C@@H]1C(=O)O)c1ccc(CN2CCOCC2)cc1	0.592 °C (inactive)
Cc1ccc(S(=O)(=O)NC(=O)[C@@H]2c3ccccc3CCN2C(=O)[C@@H]2CCCC[C@@H]2C(=O)O)cc1	2.68 degrees C
O=C(NC[C@@H]1c2ccccc2CCN1C(=O)[C@@H]1CCCC[C@@H]1C(=O)O)c1ccc(CCl)cc1	0.364 °C (inactive)
O=C(O)[C@H]1CCCC[C@H]1C(=O)N1CCc2ccccc2[C@H]1CNS(=O)(=O)c1ccccc1	0.368 °C (inactive)
O=C(O)C1CCCCC1C(=O)N1CCc2ccccc2C1CN1C(=O)[C@H]2CCCC[C@H]2C1=O (stereo partly specified)	2.32 degrees C
O=C(O)CCC(=O)N1CCc2ccccc2C1CN1C(=O)c2ccccc2C1=O (stereo unspecified)	0.462 °C (inactive)
O=C(NCCO)c1ccccc1C(=O)NC[C@@H]1c2ccccc2CCN1C(=O)C1CCCCC1C(=O)O (stereo partly specified)	1.77 degrees C
